From US20250162994A1, “DUAL LSD1/HDAC INHIBITORS” (JUBILANT EPICORE LLC, priority 2022, published 2025) come the findings set out here.

Structures are written as SMILES. Counter-ions that a name gives are not always drawn.

Assay type in all cases: biochemical
For assay [1], the target named is LSD1 (Homo sapiens (Human), UniProt O60341). As to the kind of experiment: TR-FRET assay for LSD1 (Perkin Elmer). How it is done:
LSD1 enzyme was produced in house. Tranylcypromine (TCP), LSD1 inhibitor was procured from Selleckchem. LSD1 enzyme, TCP and Biotinylated peptide substrate were diluted in assay buffer just before use. 2× inhibitor (10 μL, diluted in assay buffer) or Assay Buffer, and 5 nM enzyme were added to a 96 well plate and incubated at room temperature for 30 min. […] Stop Solution containing 300 μM tranylcypromine in 1×LANCE Detection Buffer was added to the wells and incubated for 5 min at RT. Then, Detection mixture containing 2 nM Eu-Ab and 50 nM ULight-Streptavidin in 1×LANCE Detection Buffer was prepared and added to the reaction mixture. This mixture was incubated for 1 hour at room temperature.

For assay [2], the target named is HDAC6 (Homo sapiens (Human), UniProt Q9UBN7). As to the kind of experiment: Histone deacetylase assay (BPS Biosciences), HDAC6. The conditions noted are these: human recombinant enzyme. How it is done:
Histone deacetylase assay was done as per manufacturer's instructions. […] Fluorescence was measured at an excitation wavelength of 350-380 nm and emission wavelength of 440-480 nm.

Assay [3] deals with HDAC1 (Homo sapiens (Human), UniProt Q13547). As to the kind of experiment: Histone deacetylase assay (BPS Biosciences), HDAC1. The conditions noted are these: human recombinant enzyme. How it is done:
Histone deacetylase assay was done as per manufacturer's instructions. Briefly, assay buffer, 200 uM HDAC substrate (fluorogenic HDAC acetylated peptide substrate for class I HDACs (HDACs 1, 2 and 3) and class 2b HDACs (HDACs 6 and 10) and 1% BSA are taken as a master mixture and aliquoted as 40 uL per well. Compounds (10×) were diluted in assay buffer and were added to respective wells of a black 96 well plate. For HDAC1 (1.4 ng/μL) and for HDAC6 (7 ng/μL) human recombinant enzyme was thawed on ice and 5 μL of respective enzyme was added per well. The plate was incubated at 37° C. for 1 hour. Developer solution was then added (50 μL per well) and incubated at room temperature for 10 minutes. Fluorescence was measured at an excitation wavelength of 350-380 nm and emission wavelength of 440-480 nm.

Chain of HDAC1 (Q13547 whole entry): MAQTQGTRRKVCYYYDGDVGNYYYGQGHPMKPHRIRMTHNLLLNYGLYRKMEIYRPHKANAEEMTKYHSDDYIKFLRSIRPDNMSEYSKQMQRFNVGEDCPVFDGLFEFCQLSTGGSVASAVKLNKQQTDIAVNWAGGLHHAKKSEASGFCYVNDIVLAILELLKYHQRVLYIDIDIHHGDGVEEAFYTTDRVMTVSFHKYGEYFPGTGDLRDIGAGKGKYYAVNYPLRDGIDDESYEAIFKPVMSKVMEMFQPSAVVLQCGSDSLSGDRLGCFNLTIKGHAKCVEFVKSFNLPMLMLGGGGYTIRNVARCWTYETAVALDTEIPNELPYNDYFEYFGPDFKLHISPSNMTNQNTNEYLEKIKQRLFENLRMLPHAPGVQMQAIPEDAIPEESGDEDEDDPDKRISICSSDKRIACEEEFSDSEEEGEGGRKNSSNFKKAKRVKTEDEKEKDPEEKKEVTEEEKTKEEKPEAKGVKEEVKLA
Chain of HDAC6 (Q9UBN7 whole entry): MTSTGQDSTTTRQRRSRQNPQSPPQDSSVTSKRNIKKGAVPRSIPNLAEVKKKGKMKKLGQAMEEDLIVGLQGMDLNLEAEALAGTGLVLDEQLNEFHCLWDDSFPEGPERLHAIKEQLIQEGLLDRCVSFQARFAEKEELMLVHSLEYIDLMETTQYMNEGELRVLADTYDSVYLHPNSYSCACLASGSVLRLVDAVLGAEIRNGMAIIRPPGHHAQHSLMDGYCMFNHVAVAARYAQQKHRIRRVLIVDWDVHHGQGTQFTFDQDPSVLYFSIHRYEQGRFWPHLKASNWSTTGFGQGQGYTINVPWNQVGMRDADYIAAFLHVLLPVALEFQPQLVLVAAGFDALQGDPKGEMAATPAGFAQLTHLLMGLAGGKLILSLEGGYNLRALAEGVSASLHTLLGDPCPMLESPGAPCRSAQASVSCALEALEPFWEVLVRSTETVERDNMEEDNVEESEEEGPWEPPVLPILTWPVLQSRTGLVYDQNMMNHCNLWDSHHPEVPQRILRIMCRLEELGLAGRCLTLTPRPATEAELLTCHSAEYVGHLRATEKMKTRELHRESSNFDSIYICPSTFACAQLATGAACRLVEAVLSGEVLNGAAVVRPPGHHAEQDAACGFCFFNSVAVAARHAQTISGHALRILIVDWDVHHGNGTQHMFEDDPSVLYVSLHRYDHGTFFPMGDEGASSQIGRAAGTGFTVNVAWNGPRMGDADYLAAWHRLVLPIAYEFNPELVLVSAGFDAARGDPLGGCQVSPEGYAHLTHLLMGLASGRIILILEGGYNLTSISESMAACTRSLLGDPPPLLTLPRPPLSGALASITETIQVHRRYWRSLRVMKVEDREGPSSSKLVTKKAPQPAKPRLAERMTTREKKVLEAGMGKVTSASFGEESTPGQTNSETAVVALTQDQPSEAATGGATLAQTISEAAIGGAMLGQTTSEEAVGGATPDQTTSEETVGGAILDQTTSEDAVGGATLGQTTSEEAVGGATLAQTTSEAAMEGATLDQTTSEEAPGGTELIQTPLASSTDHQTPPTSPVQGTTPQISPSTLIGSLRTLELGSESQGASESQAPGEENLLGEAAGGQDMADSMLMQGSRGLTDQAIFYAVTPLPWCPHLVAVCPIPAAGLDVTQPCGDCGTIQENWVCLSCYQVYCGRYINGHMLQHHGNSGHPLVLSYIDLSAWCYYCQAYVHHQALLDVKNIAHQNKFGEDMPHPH

Broadly, the IC50 is the concentration that gives 50% inhibition. In turn, `Nc1ccccc1NC(=O)c1ccc(Cn2cc(CN[C@@H]3C[C@H]3c3ccc(F)cc3)nn2)cc1` [Compound 21, N-(2-aminophenyl)-4-((4-((((1R,2S)-2-(4-fluorophenyl)cyclopropyl)amino)methyl)-1H-1,2,3-triazol-1-yl)methyl)benzamide] returned an IC50 in assay [1] of 69 nM.

As for `O=C(NO)c1ccc(/C=C/C(=O)N2CC(CN[C@H]3C[C@@H]3c3ccc(F)cc3)C2)cc1` [Compound 6, 4-((E)-3-(3-((((1S,2R)-2-(4-fluorophenyl)cyclopropyl)amino)methyl)azetidin-1-yl)-3-oxoprop-1-en-1-yl)-N-hydroxybenzamide], the values for the IC50 in assay [1] and in assay [2] were 147 nM and 144 nM, respectively. Compound `Nc1ccccc1NC(=O)c1ccc(Cn2cc(CN[C@@H]3C[C@H]3c3ccccc3)nn2)cc1` [Compound 29, N-(2-aminophenyl)-4-((4-((((1R,2S)-2-phenylcyclopropyl)amino)methyl)-1H-1,2,3-triazol-1-yl)methyl)benzamide] yielded an IC50 in assay [1] of 671 nM. Take `CN1C(=O)C(C)(C)c2cc([C@@H]3C[C@H]3NCC3CCN(CCCc4ccc(C(=O)NO)cc4)CC3)ccc21` [Compound 9, N-hydroxy-4-(3-(4-((((1R,2S)-2-(1,3,3-trimethyl-2-oxoindolin-5-yl)cyclopropyl)amino)methyl)piperidin-1-yl)propyl)benzamide]: the IC50 in assay [1] is 403 nM; in assay [2], 192 nM. In turn, `Cn1cc(-c2ccc([C@@H]3C[C@H]3NCC3CCN(Cc4ccc(C(=O)Nc5ccccc5N)cc4)CC3)cc2)ccc1=O` [Compound 19, N-(2-aminophenyl)-4-((4-((((1R,2S)-2-(4-(1-methyl-6-oxo-1,6-dihydropyridin-3-yl)phenyl)cyclopropyl)amino)methyl)piperidin-1-yl)methyl)benzamide] returned an IC50 in assay [1] of 6 nM.

With `Nc1ccccc1NC(=O)c1ccc(CCCN2CCC(CN[C@H]3C[C@@H]3c3ccc(F)cc3)CC2)cc1` [Compound 16, N-(2-aminophenyl)-4-(3-(4-((((1S,2R)-2-(4-fluorophenyl)cyclopropyl)amino)methyl)piperidin-1-yl)propyl)benzamide], in assay [3], the IC50 was 295 nM. Turning to `O=C(NO)c1ccc(CCCN2CCC(CN[C@@H]3C[C@H]3c3cnn(-c4ccccc4)c3)CC2)cc1` [Compound 3, N-hydroxy-4-(3-(4-((((1R,2S)-2-(1-phenyl-1H-pyrazol-4-yl)cyclopropyl)amino)methyl)piperidin-1-yl)propyl)benzamide], the IC50 in assay [1] is 9 nM; in assay [2], 88 nM. For `Nc1ccccc1NC(=O)c1ccc(CCCN2CCC(CN[C@@H]3C[C@H]3c3ccc(F)cc3)CC2)cc1` [Compound 15, N-(2-aminophenyl)-4-(3-(4-((((1R,2S)-2-(4-fluorophenyl)cyclopropyl)amino)methyl)piperidin-1-yl)propyl)benzamide], the IC50 in assay [3] amounted to 7720 nM. `Cc1noc(C)c1-c1ccc([C@H]2C[C@@H]2NCC2CCN(Cc3ccc(C(=O)Nc4ccccc4N)cc3)CC2)cc1` [Compound 28, N-(2-aminophenyl)-4-((4-((((1S,2R)-2-(4-(3,5-dimethylisoxazol-4-yl)phenyl)cyclopropyl)amino)methyl)piperidin-1-yl)methyl)benzamide] gave a 50% inhibitory concentration (IC50) in assay [1] of 29 nM. Take `O=C(NO)c1ccc(/C=C/C(=O)N2CC(CN[C@@H]3C[C@H]3c3ccc(F)cc3)C2)cc1` [Compound 5, 4-((E)-3-(3-((((1R,2S)-2-(4-fluorophenyl)cyclopropyl)amino)methyl)azetidin-1-yl)-3-oxoprop-1-en-1-yl)-N-hydroxybenzamide]: the half-inhibitory concentration (IC50) in assay [1] was 31 nM; in assay [2] it was 84 nM.

In the case of `Nc1ccccc1NC(=O)c1ccc(CCCN2CCC(CN[C@@H]3C[C@H]3c3cnn(-c4ccccc4)c3)CC2)cc1` [Compound 23, N-(2-aminophenyl)-4-(3-(4-((((1R,2S)-2-(1-phenyl-1H-pyrazol-4-yl)cyclopropyl)amino)methyl)piperidin-1-yl)propyl)benzamide], the IC50 was determined as 10 nM in assay [1] and 262 nM in assay [3].

In the case of `Nc1ccccc1NC(=O)c1ccc(Cn2cc(CN[C@H]3C[C@@H]3c3ccc(F)cc3)nn2)cc1` [Compound 22, N-(2-aminophenyl)-4-((4-((((1S,2R)-2-(4-fluorophenyl)cyclopropyl)amino)methyl)-1H-1,2,3-triazol-1-yl)methyl)benzamide], in assay [1], the IC50 worked out at 854 nM. As for `Cc1noc(C)c1-c1ccc([C@@H]2C[C@H]2NCC2CCN(Cc3ccc(C(=O)Nc4ccccc4N)cc3)CC2)cc1` [Compound 27, N-(2-aminophenyl)-4-((4-((((1R,2S)-2-(4-(3,5-dimethylisoxazol-4-yl)phenyl)cyclopropyl)amino)methyl)piperidin-1-yl)methyl)benzamide], in assay [1], half-maximal inhibition (IC50) was put at 6 nM. On to `Cn1cc(-c2ccc([C@H]3C[C@@H]3NCC3CCN(Cc4ccc(C(=O)Nc5ccccc5N)cc4)CC3)cc2)ccc1=O` [Compound 20, N-(2-aminophenyl)-4-((4-((((1S,2R)-2-(4-(1-methyl-6-oxo-1,6-dihydropvridin-3-yl)phenyl)cyclopropyl)amino)methyl)piperidin-1-yl)methyl)benzamide], for which the IC50 in assay [1] is 20 nM. `Nc1ccccc1NC(=O)c1ccc(CCCN2CCC(CN[C@H]3C[C@@H]3c3cnn(-c4ccccc4)c3)CC2)cc1` [Compound 24, N-(2-aminophenyl)-4-(3-(4-((((1S,2R)-2-(1-phenyl-1H-pyrazol-4-yl)cyclopropyl)amino)methyl)piperidin-1-yl)propyl)benzamide]: the IC50 was 6 nM in assay [1] and 8600 nM in assay [3]. As to `CC(C)n1cc([C@@H]2C[C@H]2NCC2CCN(CCCc3ccc(C(=O)Nc4ccccc4N)cc3)CC2)cn1` [Compound 17, N-(2-aminophenyl)-4-(3-(4-((((1R,2S)-2-(1-isopropyl-1H-pyrazol-4-yl)cyclopropyl)amino)methyl)piperidin-1-yl)propyl)benzamide], the IC50 turned out to be 101 nM in assay [1] and 1040 nM in assay [3].

Turning to `Nc1ccccc1NC(=O)c1ccc(CCCN2CCC(CN[C@H]3C[C@@H]3c3ccc(F)c(F)c3)CC2)cc1` [Compound 26, N-(2-aminophenyl)-4-(3-(4-((((1S,2R)-2-(3,4-difluorophenyl)cyclopropyl)amino)methyl)piperidin-1-yl)propyl)benzamide], the IC50 in assay [2] is greater than 10000 nM. Consider `CC(C)n1cc([C@H]2C[C@@H]2NCC2CCN(CCCc3ccc(C(=O)Nc4ccccc4N)cc3)CC2)cn1` [Compound 18, N-(2-aminophenyl)-4-(3-(4-((((1S,2R)-2-(1-isopropyl-1H-pyrazol-4-yl)cyclopropyl)amino)methyl)piperidin-1-yl)propyl)benzamide], for which the IC50 was found to be 139 nM in assay [1] and 2890 nM in assay [3]. For the compound `O=C(NO)c1ccc(Cn2cc(CN[C@H]3C[C@@H]3c3ccccc3)cn2)cc1` [Compound 2, N-hydroxy-4-((4-((((1S,2R)-2-phenylcyclopropyl)amino)methyl)-1H-pyrazol-1-yl)methyl)benzamide], the IC50 in assay [3] was 1550 nM. Regarding `O=C(NO)c1ccc(Cn2cc(CN[C@@H]3C[C@H]3c3ccccc3)cn2)cc1` [Compound 1, N-hydroxy-4-((4-((((1R,2S)-2-phenylcyclopropyl)amino)methyl)-1H-pyrazol-1-yl)methyl)benzamide hydrobromide], the IC50 in assay [3] is 923 nM.
